Reference: patent US12584101B2, “Compositions and method of use for H5 competent Bifidobacterium longum subsp. Infantis” (INFINANT HEALTH, INC., priority 2018, dated 2026)

Tested on: Blon_0881 and Blon_2343
Assay: qPCR gene expression of Blon_0881 and Blon_2343 relative to Blon_0393 (activation)
Format: cell-based, B. infantis
Conditions: 5, 10, 15 and 20 g/L of NAG, rest glucose to 20 g/L; stationary phase
Description: In some embodiments, gene activation relates to Blon_0881 and Blon_2343 and their expression is greater than 1; that is, when the delta delta cycle threshold (2^ΔΔCt) is greater than 1, DDCT is calculated using Blon_0393, or another constitutively expressed gene as a reference. The result (activation) is the fold change (2^ΔΔCt>1) of gene expression. Determined based on the double delta CT (2^ΔΔCt) method (Livak K and Schmittgen T. (2001) Analysis of relative gene expression data using real-time quantitative PCR and the 2(−Delta Delta C(T)) Method. Methods: 25: 402-8). In other embodiments, other genes from Table 1 are used in addition to Blon_0881 and Blon_2343.
A series of fermentations were conducted where B. infantis was grown on various concentrations of NAG and glucose. MRS broth was prepared without a carbon source. The carbon source was added at 2% of the media or 20 g/L. The carbon source was varied according to Table 5. The cells were grown to the stationary phase and spun down. The supernatant was removed and the cells lysed. RNA was extracted. The cells were tested for increase in gene expression of Blon_0881 and Blon_2343 by qPCR relative to Blon_0393. The 2^ΔΔCt was greater than 1 confirming activation for 5, 10, 15 and 20 g/L of NAG. […]

## N-acetyl-glucosamine/galactosamine (NAG)
  2^ΔΔCt of Blon_0881 and Blon_2343 relative to Blon_0393: greater than 1
